Assay results reported in ChEMBL document CHEMBL1141073, “E-ring modified steroids as novel potent inhibitors of 17beta-hydroxysteroid dehydrogenase type 1” (J Med Chem, 2005).

Tests used:
Format in all cases: cell-based
[1] = molecular target: T1, 17-beta-hydroxysteroid dehydrogenase type 2 (Homo sapiens) (UniProt P37059); assay: Inhibitory activity at 10 uM against 17-beta-hydroxysteroid dehydrogenase type 2 in MDAMB-231 human breast cancer cells using 2 nM [3H]estradiol; conditions: Cancer cell lines
T1 sequence (whole entry): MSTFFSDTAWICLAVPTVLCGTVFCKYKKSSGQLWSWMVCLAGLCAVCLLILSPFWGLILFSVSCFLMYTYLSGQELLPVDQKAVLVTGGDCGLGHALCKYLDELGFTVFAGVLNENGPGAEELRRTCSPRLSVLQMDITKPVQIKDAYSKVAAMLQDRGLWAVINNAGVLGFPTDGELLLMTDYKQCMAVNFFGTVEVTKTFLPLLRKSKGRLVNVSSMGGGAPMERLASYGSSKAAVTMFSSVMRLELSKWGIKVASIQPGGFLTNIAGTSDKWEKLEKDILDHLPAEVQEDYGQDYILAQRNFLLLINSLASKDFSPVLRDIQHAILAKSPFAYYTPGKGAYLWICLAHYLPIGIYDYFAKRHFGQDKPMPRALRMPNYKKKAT

[2] = molecular target: T2, 17-beta-hydroxysteroid dehydrogenase type 1 (Homo sapiens) (UniProt P14061); assay: Inhibitory activity at 10 uM against 17-beta-hydroxysteroid dehydrogenase type 1 expressed in T47D human breast cancer cells using 2 nM [3H]estrone
T2 sequence (whole entry): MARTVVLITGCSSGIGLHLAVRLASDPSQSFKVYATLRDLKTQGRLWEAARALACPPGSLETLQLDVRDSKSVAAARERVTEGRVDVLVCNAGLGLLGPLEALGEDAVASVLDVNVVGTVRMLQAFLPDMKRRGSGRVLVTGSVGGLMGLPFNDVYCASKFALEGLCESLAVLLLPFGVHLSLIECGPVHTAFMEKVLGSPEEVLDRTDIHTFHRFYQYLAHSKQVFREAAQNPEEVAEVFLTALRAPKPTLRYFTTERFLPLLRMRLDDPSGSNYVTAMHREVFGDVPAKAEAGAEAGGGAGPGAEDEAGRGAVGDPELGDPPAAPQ

[3] = molecular target: T3, 17-beta-hydroxysteroid dehydrogenase type 1 (Homo sapiens, UniProt P14061); assay: Inhibition of 17-beta-hydroxysteroid dehydrogenase type 1 expressed in T47D human breast cancer cells using 2 nM [3H]estrone
T3 sequence (P14061 whole entry): T2 sequence (whole entry)

Compound | inhibition [1] [%] | inhibition [2] [%] | IC50 [3] [nM]
C[C@]12CCC3c4ccc(O)cc4CCC3C1Cc1c2n[nH]c1C(=O)O (stereo not given in full) | 6 | 32 | 
C[C@]12CCC3c4ccc(O)cc4CCC3C1Cc1c2n[nH]c1C(F)(F)F (stereo not given in full) | 36 | 75 | 
CC1(C)C[C@H]2C3CCc4cc(O)ccc4[C@H]3CC[C@]2(C)C1=O (single isomer, unassigned) | 35 | 95 | 
CCN(C)C(=O)c1[nH]nc2c1CC1C3CCc4cc(O)ccc4C3CC[C@]21C (stereo not given in full) | 6 | 88 | 
C[C@]12CCC3c4ccc(O)cc4CCC3C1Cc1cccnc12 (stereo not given in full) | 34 | 78 | 
COCCn1cc2c(n1)[C@@]1(C)CCC3c4ccc(O)cc4CCC3C1C2 (stereo not given in full) | 48 | 95 | 
CCOC(=O)C(=O)C1=C(O)[C@@]2(C)CCC3c4ccc(O)cc4CCC3C2C1 (stereo not given in full) | 7 | 75 | 
CCOC(=O)c1[nH]nc2c1CC1C3CCc4cc(O)ccc4C3CC[C@]21C (stereo not given in full) | 7 | 94 | 
C[C@]12CC[C@@H]3c4ccc(O)cc4CCC3[C@@H]1C/C(=N/O)C2=O (single isomer, unassigned) | 5 | 95 | 1100
C[C@]12CCC3c4ccc(O)cc4CCC3C1Cc1c(CO)n[nH]c12 (stereo not given in full) | 1 | 94 | 
CC1(C#N)C[C@H]2C3CCc4cc(O)ccc4[C@H]3CC[C@]2(C)C1=O (single isomer, unassigned) | 12 | 85 | 
CC(C)NC(=O)c1[nH]nc2c1CC1C3CCc4cc(O)ccc4C3CC[C@]21C (stereo not given in full) | 0 | 57 | 
C[C@]12CCC3c4ccc(O)cc4CCC3C1Cc1c2n[nH]c1C(=O)NCc1ccccn1 (stereo not given in full) | 9 | 93 | 
CC(C)Cn1ncc2c1[C@@]1(C)CCC3c4ccc(O)cc4CCC3C1C2 (stereo not given in full) | 44 | 70 | 
Cn1cc2c(n1)[C@@]1(C)CCC3c4ccc(O)cc4CCC3C1C2 (stereo not given in full) | 24 | 94 | 
CNC(=O)c1[nH]nc2c1CC1C3CCc4cc(O)ccc4C3CC[C@]21C (stereo not given in full) | 14 | 62 | 
C[C@]12CCC3c4ccc(O)cc4CCC3C1Cc1c2n[nH]c1C(=O)NCC1CCCO1 (stereo not given in full) | 4 | 87 | 

Compound | inhibition [1] [%] | inhibition [2] [%] | IC50 [3] [nM]
C[C@]12CC[C@@H]3c4ccc(O)cc4CCC3[C@@H]1CC(=N/O)/C2=N\O (single isomer, unassigned) | 2 | 55 | 
C[C@]12CCC3c4ccc(O)cc4CCC3C1CC(C=O)=C2O (stereo not given in full) | 15 | 97 | 110
Cn1cccc1CNC(=O)c1[nH]nc2c1CC1C3CCc4cc(O)ccc4C3CC[C@]21C (stereo not given in full) | 4 | 89 | 
CN1CCN(CNC(=O)c2[nH]nc3c2CC2C4CCc5cc(O)ccc5C4CC[C@]32C)CC1 (stereo not given in full) | 1 | 50 | 
C[C@]12CCC3c4ccc(O)cc4CCC3C1Cc1c[nH]nc12 (stereo not given in full) | 32 | 97 | 180
C[C@]12CCC3c4ccc(O)cc4CCC3C1CC(C(=O)C(F)(F)F)=C2O (stereo not given in full) | 1.5 | 78 | 
C[C@]12CC[C@@H]3c4ccc(O)cc4CCC3[C@@H]1CC(C#N)C2=O (single isomer, unassigned) | 17 | 77 | 10000
COC(=O)Cn1cc2c(n1)[C@@]1(C)CCC3c4ccc(O)cc4CCC3C1C2 (stereo not given in full) | 19 | 95 | 
COC(=O)Cn1ncc2c1[C@@]1(C)CCC3c4ccc(O)cc4CCC3C1C2 (stereo not given in full) | 30 | 79 | 
C[C@]12CCC3c4ccc(O)cc4CCC3C1Cc1cn(CCC#N)nc12 (stereo not given in full) | 44 | 95 | 
Cc1cnc(CNC(=O)c2[nH]nc3c2CC2C4CCc5cc(O)ccc5C4CC[C@]32C)cn1 (stereo not given in full) | 61 | 80 | 
Cn1ncc2c1[C@@]1(C)CCC3c4ccc(O)cc4CCC3C1C2 (stereo not given in full) | 32 | 43 | 
COCCn1ncc2c1[C@@]1(C)CCC3c4ccc(O)cc4CCC3C1C2 (stereo not given in full) | 55 | 83 | 
C[C@]12CCC3c4ccc(O)cc4CCC3C1Cc1c2n[nH]c1C(=O)NCc1cccnc1 (stereo not given in full) | 28 | 92 | 
C[C@]12CCC3c4ccc(O)cc4CCC3C1Cc1c2n[nH]c1C(=O)NCCc1cccnc1 (stereo not given in full) | 3 | 99 | 
CC(C)Cn1cc2c(n1)[C@@]1(C)CCC3c4ccc(O)cc4CCC3C1C2 (stereo not given in full) | 61 | 77 | 
